Experimental data from patent US9961848B2, “Soybean event 127 and methods related thereto” (EMPRESA BRASILEIRA DE PESQUISA AGROPECUARIA—EMBRAPA, priority 2009, dated 2018).

Key:
Assay type in all cases: in vivo
[1] = test system: COMBE = Commelina benghalensis; assay: Field weed control, burn down application; conditions: burn down 5 days before planting, g ai/ha Glyphosate 1080, Imazapic 70, Imazapic + imazapyr 70
Excerpt: (§3) All the procedures from planting to harvest were the same for all three locations. The herbicides were applied at burn down five days before the soybean planting.
(§4) A completely randomized block design with three replications was used.
(§5) Imidazolinone-tolerant soybean derived from event 127 was planted 5 cm deep at population of 380,000 seeds/ha in 50 cm row spacing. The imidazolinones herbicides were applied with a nonionic adjuvant, Dash, at 0.25% v/v. A CO^2 backpack sprayer with 80015 low pressure nozzles delivering 170 l/ha at 190 kpa was used for all herbicide applications (Table 18).
(§6) Crop injury was assessed 15 and 30 days after planting (DAP) based on a 0 to 100 scale where 0 is no injury and 100 is crop death. Herbicide efficacy was assessed at 15, 30 and 60 DAP based on a 0 to 100 scale, where 0 is no control and 100 is total control.

CYPRO = Cyperus rotundus [2] = assay: Field weed control, burn down application; conditions: burn down 5 days before planting, g ai/ha Glyphosate 1080, Imazapic 70, Imazapic + imazapyr 70
Excerpt: as §3, §4, §5, §6

[3] = test system: glyphosate resistant horseweed; assay: Greenhouse injury rate, postemergence application
Procedure: (§1) Greenhouse studies were conducted to determine whether imidazolinone herbicides could be used in the control of undesired glyphosate tolerant weeds and crops growing in a cultivated area. […] Plants were maintained in a greenhouse with overhead watering.
(§2) Postemergence sprays were conducted at the 2-true leaf stage for corn and soybean and at the 9-true leaf stage for horseweed. […] The percent overall injury rate was visually determined 14 days after treatment (DAT) and 25 days after treatment (DAT). […] The results of the postemergence tests are summarized in Table 20 and the results of the pre-emergence study are summarized in Table 21. Results are provided as averages of the 5 individual plants.

[4] = test system: glyphosate resistant corn; assay: Greenhouse injury rate, postemergence application; conditions: 14 DAT
Procedure: as §1, §2

[5] = test system: glyphosate resistant soybean; assay: Greenhouse injury rate, postemergence application; conditions: 14 DAT
Procedure: as §1, §2

[6] = test system: DIGHO = Digitaria horizontalis; assay: Field weed control, burn down application; conditions: burn down 5 days before planting, g ai/ha Glyphosate 1080, Imazapic 70, Imazapic + imazapyr 70
Excerpt: as §3, §4, §5, §6

BIDPI = Bidens pilosa = assay: Field weed control, burn down application; conditions: burn down 5 days before planting, g ai/ha Glyphosate 1080, Imazapic 70, Imazapic + imazapyr 70
Excerpt: as §3, §4, §5, §6

[7] = test system: IPOGR = Ipomoea grandifolia; assay: Field weed control, burn down application; conditions: burn down 5 days before planting, g ai/ha Glyphosate 1080, Imazapic 70, Imazapic + imazapyr 70
Excerpt: as §3, §4, §5, §6

[8] = test system: BRAPL = Brachiaria plantaginea; assay: Field weed control, burn down application; conditions: burn down 5 days before planting, g ai/ha Glyphosate 1080, Imazapic 70, Imazapic + imazapyr 70
Excerpt: as §3, §4, §5, §6

[9] = test system: EPHHL = Euphorbia heterophylla; assay: Field weed control, burn down application; conditions: burn down 5 days before planting, g ai/ha Glyphosate 1080, Imazapic 70, Imazapic + imazapyr 70
Excerpt: as §3, §4, §5, §6

[10] = test system: glyphosate resistant horseweed; assay: Greenhouse injury rate, preemergence application; conditions: 25 DAT
Procedure: as §1, §2

[11] = test system: glyphosate resistant corn; assay: Greenhouse injury rate, preemergence application; conditions: 14 DAT
Procedure: as §1, §2

[12] = test system: glyphosate resistant soybean; assay: Greenhouse injury rate, preemergence application; conditions: 14 DAT
Procedure: as §1, §2

[13] = test system: GASPA = Galinsoga parviflora; assay: Field weed control, burn down application; conditions: burn down 5 days before planting, g ai/ha Glyphosate 1080, Imazapic 70, Imazapic + imazapyr 70
Excerpt: as §3, §4, §5, §6

[14] = test system: COMBE = Commelina benghalensis; assay: Field weed control, early post-emergence application; conditions: gai/ha Imazapyr 72, Imazapyr + imazapic 70, Glyphosate 540
[15] = test system: EPHHL = Euphorbia heterophylla; assay: as above; conditions: gai/ha Imazapyr 72, Imazapyr + imazapic 70, Glyphosate 540
[16] = test system: RCHBR = Richardia brasiliensis; assay: as above; conditions: gai/ha Imazapyr 72, Imazapyr + imazapic 70, Glyphosate 540
[17] = test system: IPOGR = Ipomoea grandifolia; assay: as above; conditions: gai/ha Imazapyr 72, Imazapyr + imazapic 70, Glyphosate 540
SIDRH = Sida rombifolia = assay: as above; conditions: gai/ha Imazapyr 72, Imazapyr + imazapic 70, Glyphosate 540
[18] = test system: BOILF = Spermacoce latifolia; assay: as above; conditions: gai/ha Imazapyr 72, Imazapyr + imazapic 70, Glyphosate 540
CYPRO = Cyperus rotundus [19] = assay: as above; conditions: gai/ha Imazapyr 72, Imazapyr + imazapic 70, Glyphosate 540

Cc1cnc(C2=NC(=O)C(C)(C(C)C)N2)c(C(=O)O)c1 (stereo not drawn) [Imazapic, imazapic]
Efficacy (%) ([1]; 30 DAT): 75% | Efficacy (%) ([1]; 60 DAT): 64% | Efficacy (%) (CYPRO = Cyperus rotundus [2]; 30 DAT): 88% | Efficacy (%) (CYPRO = Cyperus rotundus [2]; 60 DAT): 76% | Average Overall Injury (%) ([3]; 14 DAT, 20 g ai/ha): 56% | Average Overall Injury (%) ([3]; 14 DAT, 40 g ai/ha): 59% | Average Overall Injury (%) ([3]; 14 DAT, 80 g ai/ha): 80% | Average Overall Injury (%) ([3]; 14 DAT, 160 g ai/ha): 92% | Average Overall Injury (%) ([3]; 14 DAT, 240 g ai/ha): 94% | Average Overall Injury (%) ([3]; 25 DAT, 20 g ai/ha): 27% | Average Overall Injury (%) ([3]; 25 DAT, 40 g ai/ha): 28% | Average Overall Injury (%) ([3]; 25 DAT, 80 g ai/ha): 69% | Average Overall Injury (%) ([3]; 25 DAT, 160 g ai/ha): 77% | Average Overall Injury (%) ([3]; 25 DAT, 240 g ai/ha): 88% | Average Overall Injury (%) ([4]; 20 g ai/ha): 83% | Average Overall Injury (%) ([4]; 40 g ai/ha): 87% | Average Overall Injury (%) ([4]; 80 g ai/ha): 93% | Average Overall Injury (%) ([4]; 160 g ai/ha): 99% | Average Overall Injury (%) ([4]; 240 g ai/ha): 99% | Average Overall Injury (%) ([5]; 20 g ai/ha): 35% | Average Overall Injury (%) ([5]; 40 g ai/ha): 61% | Average Overall Injury (%) ([5]; 80 g ai/ha): 71% | Average Overall Injury (%) ([5]; 160 g ai/ha): 87% | Average Overall Injury (%) ([5]; 240 g ai/ha): 96% | Efficacy (%) ([6]; 30 DAT): 95% | Efficacy (%) ([6]; 60 DAT): 86% | Efficacy (%) (BIDPI = Bidens pilosa; 30 DAT): 79% | Efficacy (%) (BIDPI = Bidens pilosa; 60 DAT): 73% | Efficacy (%) ([7]; 30 DAT): 75% | Efficacy (%) ([7]; 60 DAT): 73% | Efficacy (%) ([8]; 30 DAT): 85% | Efficacy (%) ([8]; 60 DAT): 79% | Efficacy (%) ([9]; 30 DAT): 98% | Efficacy (%) ([9]; 60 DAT): 86% | Average Overall Injury (%) ([10]; 20 g ai/ha): 65% | Average Overall Injury (%) ([10]; 40 g ai/ha): 90% | Average Overall Injury (%) ([10]; 80 g ai/ha): 99% | Average Overall Injury (%) ([10]; 160 g ai/ha): 99% | Average Overall Injury (%) ([10]; 240 g ai/ha): 99% | Average Overall Injury (%) ([11]; 20 g ai/ha): 32% | Average Overall Injury (%) ([11]; 40 g ai/ha): 38% | Average Overall Injury (%) ([11]; 80 g ai/ha): 67% | Average Overall Injury (%) ([11]; 160 g ai/ha): 86% | Average Overall Injury (%) ([11]; 240 g ai/ha): 90% | Average Overall Injury (%) ([12]; 20 g ai/ha): 12% | Average Overall Injury (%) ([12]; 40 g ai/ha): 39% | Average Overall Injury (%) ([12]; 80 g ai/ha): 60% | Average Overall Injury (%) ([12]; 160 g ai/ha): 70% | Average Overall Injury (%) ([12]; 240 g ai/ha): 81% | Efficacy (%) ([13]; 30 DAT): 84% | Efficacy (%) ([13]; 60 DAT): 78%

O=C(O)CNCP(=O)(O)O [Glyphosate, glyphosate]
Efficacy ([14]; 15 DAT): 70% | Efficacy ([14]; 30 DAT): 61% | Efficacy ([14]; 60 DAT): 50% | Efficacy (%) ([1]; 30 DAT): 38% | Efficacy (%) ([1]; 60 DAT): 22% | Efficacy ([15]; 15 DAT): 85% | Efficacy ([15]; 30 DAT): 77% | Efficacy ([15]; 60 DAT): 72% | Efficacy ([16]; 15 DAT): 78% | Efficacy ([16]; 30 DAT): 57% | Average Overall Injury (%) ([3]; 14 DAT, 774 g ae/ha): 34% | Average Overall Injury (%) ([3]; 25 DAT, 774 g ae/ha): 16% | Average Overall Injury (%) ([4]; 774 g ae/ha): 1% | Average Overall Injury (%) ([5]; 774 g ae/ha): 1% | Efficacy (%) ([6]; 30 DAT): 60% | Efficacy (%) ([6]; 60 DAT): 41% | Efficacy (%) (BIDPI = Bidens pilosa; 30 DAT): 25% | Efficacy (%) (BIDPI = Bidens pilosa; 60 DAT): 21% | Efficacy (%) ([7]; 30 DAT): 23% | Efficacy (%) ([7]; 60 DAT): 15% | Efficacy ([17]; 15 DAT): 90% | Efficacy ([17]; 30 DAT): 87% | Efficacy ([17]; 60 DAT): 73% | Efficacy (%) ([8]; 60 DAT): 25% | Efficacy (%) ([9]; 30 DAT): 15% | Efficacy (%) ([9]; 60 DAT): 7% | Average Overall Injury (%) ([10]; 774 g ae/ha): 0% | Average Overall Injury (%) ([11]; 774 g ae/ha): 0% | Average Overall Injury (%) ([12]; 774 g ae/ha): 0% | Efficacy (%) ([13]; 30 DAT): 19% | Efficacy (%) ([13]; 60 DAT): 12% | Efficacy (SIDRH = Sida rombifolia; 15 DAT): 82% | Efficacy (SIDRH = Sida rombifolia; 30 DAT): 77% | Efficacy (SIDRH = Sida rombifolia; 60 DAT): 70% | Efficacy ([18]; 15 DAT): 82% | Efficacy ([18]; 30 DAT): 75% | Efficacy ([18]; 60 DAT): 68%

CC(C)C1(C)N=C(c2ncccc2C(=O)O)NC1=O (stereo not drawn) [imazapyr]
Efficacy ([14]; 15 DAT): 93% | Efficacy ([14]; 30 DAT): 87% | Efficacy ([14]; 60 DAT): 80% | Efficacy ([15]; 15 DAT): 92% | Efficacy ([15]; 30 DAT): 85% | Efficacy ([15]; 60 DAT): 83% | Efficacy ([16]; 15 DAT): 86% | Efficacy ([16]; 30 DAT): 83% | Efficacy ([16]; 60 DAT): 77% | Average Overall Injury (%) ([3]; 14 DAT, 20 g ai/ha): 70% | Average Overall Injury (%) ([3]; 14 DAT, 40 g ai/ha): 79% | Average Overall Injury (%) ([3]; 14 DAT, 80 g ai/ha): 90% | Average Overall Injury (%) ([3]; 14 DAT, 120 g ai/ha): 96% | Average Overall Injury (%) ([3]; 14 DAT, 240 g ai/ha): 97% | Average Overall Injury (%) ([3]; 25 DAT, 20 g ai/ha): 44% | Average Overall Injury (%) ([3]; 25 DAT, 40 g ai/ha): 73% | Average Overall Injury (%) ([3]; 25 DAT, 80 g ai/ha): 97% | Average Overall Injury (%) ([3]; 25 DAT, 120 g ai/ha): 99% | Average Overall Injury (%) ([3]; 25 DAT, 240 g ai/ha): 99% | Average Overall Injury (%) ([4]; 20 g ai/ha): 96% | Average Overall Injury (%) ([4]; 40 g ai/ha): 98% | Average Overall Injury (%) ([4]; 80 g ai/ha): 99% | Average Overall Injury (%) ([4]; 120 g ai/ha): 100% | Average Overall Injury (%) ([4]; 240 g ai/ha): 100% | Average Overall Injury (%) ([5]; 20 g ai/ha): 75% | Average Overall Injury (%) ([5]; 40 g ai/ha): 96% | Average Overall Injury (%) ([5]; 80 g ai/ha): 97% | Average Overall Injury (%) ([5]; 120 g ai/ha): 98% | Average Overall Injury (%) ([5]; 240 g ai/ha): 99% | Efficacy ([17]; 15 DAT): 96% | Efficacy ([17]; 30 DAT): 91% | Efficacy ([17]; 60 DAT): 85% | Average Overall Injury (%) ([10]; 20 g ai/ha): 46% | Average Overall Injury (%) ([10]; 40 g ai/ha): 63% | Average Overall Injury (%) ([10]; 80 g ai/ha): 84% | Average Overall Injury (%) ([10]; 120 g ai/ha): 96% | Average Overall Injury (%) ([10]; 240 g ai/ha): 88% | Average Overall Injury (%) ([11]; 20 g ai/ha): 37% | Average Overall Injury (%) ([11]; 40 g ai/ha): 47% | Average Overall Injury (%) ([11]; 80 g ai/ha): 65% | Average Overall Injury (%) ([11]; 120 g ai/ha): 81% | Average Overall Injury (%) ([11]; 240 g ai/ha): 91% | Average Overall Injury (%) ([12]; 20 g ai/ha): 41% | Average Overall Injury (%) ([12]; 40 g ai/ha): 43% | Average Overall Injury (%) ([12]; 80 g ai/ha): 66% | Average Overall Injury (%) ([12]; 120 g ai/ha): 83% | Average Overall Injury (%) ([12]; 240 g ai/ha): 87% | Efficacy (CYPRO = Cyperus rotundus [19]; 15 DAT): 95% | Efficacy (CYPRO = Cyperus rotundus [19]; 30 DAT): 87% | Efficacy (CYPRO = Cyperus rotundus [19]; 60 DAT): 81% | Efficacy (SIDRH = Sida rombifolia; 15 DAT): 94% | Efficacy (SIDRH = Sida rombifolia; 30 DAT): 87% | Efficacy (SIDRH = Sida rombifolia; 60 DAT): 81% | Efficacy ([18]; 15 DAT): 88% | Efficacy ([18]; 30 DAT): 83% | Efficacy ([18]; 60 DAT): 75%
